Values quoted from earlier work in patent US9512158B2, “Enhanced immunogenicity of tumor associated antigens by addition of alphagal epitopes” (NewLink Genetics Corp., priority 2006, dated 2016).

Assays:
αGT knockout mice = details: cited from earlier work
B16 melanoma = details: cited from earlier work
MHC-I H2-K^b = target: T1, MHC-I H2-K^b (Mus musculus, UniProt P01901); details: compared with peptide #1 TWHRYHLL; cited from earlier work
T1 sequence (P01901 22-369): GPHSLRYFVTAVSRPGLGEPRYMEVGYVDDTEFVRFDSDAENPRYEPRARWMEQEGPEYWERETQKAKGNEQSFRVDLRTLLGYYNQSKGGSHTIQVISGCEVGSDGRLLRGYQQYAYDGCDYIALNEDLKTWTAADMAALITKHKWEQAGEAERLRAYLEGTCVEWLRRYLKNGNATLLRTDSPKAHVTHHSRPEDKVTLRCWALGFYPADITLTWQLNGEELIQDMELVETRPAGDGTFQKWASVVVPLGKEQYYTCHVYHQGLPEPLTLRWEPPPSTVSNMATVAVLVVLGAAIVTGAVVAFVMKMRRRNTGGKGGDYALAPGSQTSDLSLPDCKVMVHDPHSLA
T1 sequence (P01887 21-119 partner): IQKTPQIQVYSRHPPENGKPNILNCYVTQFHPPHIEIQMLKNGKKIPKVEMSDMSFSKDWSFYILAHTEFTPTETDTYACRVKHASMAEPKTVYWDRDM

Row | Substance | T cell response to BSA (αGT knockout mice; mouse, in vivo) | production of anti-BSA IgG antibodies (αGT knockout mice; without adjuvant) | protective immunity against B16 melanoma (B16 melanoma; C57Bl/6 mice (H-2K^b), in the presence of adjuvant) | immunogenicity (B16 melanoma; in the absence of adjuvant) | binding affinity to MHC-I H2-K^b (MHC-I H2-K^b)
1 | BSA conjugated with αGal: BSA conjugated with αGal | increase | significant production | – | – | –
2 | TAYRYHLL | – | – | induces protective immunity | not immunogenic | better binding affinity
